# According to ChEMBL document CHEMBL1201862, “PubChem BioAssay data set” (2004):
#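 Values below derive from 48-hour exposures of cells grown in 96-well plates, with endpoints linearly interpolated between the two concentrations bracketing the appropriate inhibition level. GI50: concentration for 50% inhibition of growth.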 The source made the active and inactive calls. No stated cut-off is given here; in the data, active = GI50 up to about 1.1 µM and inactive = higher.
# Experiments:
# Experiment in all cases: DTP human tumour cell line panel, 48 h
# 786-0 = tested on: 786-0
# A549 = tested on: A549
# ACHN = tested on: ACHN
# BT-549 = tested on: BT-549
# CAKI-1 = tested on: CAKI-1
# CCRF-CEM = tested on: CCRF-CEM
# COLO 205 = tested on: COLO 205
# DU-145 = tested on: DU-145
# EKVX = tested on: EKVX
# HCC 2998 = tested on: HCC 2998
# HCT-116 = tested on: HCT-116
# HCT-15 = tested on: HCT-15
# HL-60 = tested on: HL-60
# HOP-62 = tested on: HOP-62
# HOP-92 = tested on: HOP-92
# HT-29 = tested on: HT-29
# Hs-578T = tested on: Hs-578T
# IGROV-1 = tested on: IGROV-1
# K562 = tested on: K562
# KM12 = tested on: KM12
# LOX IMVI = tested on: LOX IMVI
# M14 = tested on: M14
# MCF7 = tested on: MCF7
# MDA-MB-231 = tested on: MDA-MB-231
# MDA-MB-435 = tested on: MDA-MB-435
# MDA-N = tested on: MDA-N
# MOLT-4 = tested on: MOLT-4
# Malme-3M = tested on: Malme-3M
# NCI-H226 = tested on: NCI-H226
# NCI-H23 = tested on: NCI-H23
# NCI-H460 = tested on: NCI-H460
# NCI-H522 = tested on: NCI-H522
# NCI/ADR-RES = tested on: NCI/ADR-RES
# OVCAR-3 = tested on: OVCAR-3
# OVCAR-4 = tested on: OVCAR-4
# OVCAR-5 = tested on: OVCAR-5
# OVCAR-8 = tested on: OVCAR-8
# PC-3 = tested on: PC-3
# RPMI-8226 = tested on: RPMI-8226
# RXF 393 = tested on: RXF 393
# SF-268 = tested on: SF-268
# SF-295 = tested on: SF-295
# SF-539 = tested on: SF-539
# SK-MEL-28 = tested on: SK-MEL-28
# SK-MEL-2 = tested on: SK-MEL-2
# SK-MEL-5 = tested on: SK-MEL-5
# SK-OV-3 = tested on: SK-OV-3
# SN12C = tested on: SN12C
# SNB-19 = tested on: SNB-19
# SNB-75 = tested on: SNB-75
# SR = tested on: SR
# SW-620 = tested on: SW-620
# T47D = tested on: T47D
# TK-10 = tested on: TK-10
# U-251 = tested on: U-251
# UACC-257 = tested on: UACC-257
# UACC-62 = tested on: UACC-62
# UO-31 = tested on: UO-31
smiles,measurement,setting,value
CN1C(c2ccccc2)=CC(=O)C(O)=C(c2ccccc2)S1(=O)=O,GI50,786-0,> 100 µM (inactive)
same,GI50,A549,> 100 µM (inactive)
same,GI50,ACHN,> 100 µM (inactive)
same,GI50,BT-549,> 100 µM (inactive)
same,GI50,CAKI-1,> 100 µM (inactive)
same,GI50,CCRF-CEM,> 100 µM (inactive)
same,GI50,COLO 205,> 100 µM (inactive)
same,GI50,DU-145,> 100 µM (inactive)
same,GI50,EKVX,> 100 µM (inactive)
same,GI50,HCC 2998,> 100 µM (inactive)
same,GI50,HCT-116,> 100 µM (inactive)
same,GI50,HCT-15,> 100 µM
same,GI50,HL-60,> 100 µM (inactive)
same,GI50,HOP-62,> 100 µM (inactive)
same,GI50,HOP-92,> 100 µM (inactive)
same,GI50,HT-29,> 100 µM (inactive)
same,GI50,Hs-578T,> 100 µM (inactive)
same,GI50,IGROV-1,> 100 µM (inactive)
same,GI50,K562,> 100 µM (inactive)
same,GI50,KM12,> 100 µM (inactive)
same,GI50,LOX IMVI,> 100 µM (inactive)
same,GI50,M14,> 100 µM (inactive)
same,GI50,MCF7,> 100 µM (inactive)
same,GI50,MDA-MB-231,> 100 µM (inactive)
same,GI50,MDA-MB-435,> 100 µM (inactive)
same,GI50,MDA-N,> 100 µM (inactive)
same,GI50,MOLT-4,> 100 µM (inactive)
same,GI50,Malme-3M,> 100 µM (inactive)
same,GI50,NCI-H226,> 100 µM (inactive)
same,GI50,NCI-H23,> 100 µM (inactive)
same,GI50,NCI-H460,> 100 µM (inactive)
same,GI50,NCI-H522,> 100 µM (inactive)
same,GI50,NCI/ADR-RES,> 100 µM (inactive)
same,GI50,OVCAR-3,> 100 µM (inactive)
same,GI50,OVCAR-4,> 100 µM (inactive)
same,GI50,OVCAR-5,> 100 µM (inactive)
same,GI50,OVCAR-8,> 100 µM (inactive)
same,GI50,PC-3,> 100 µM (inactive)
same,GI50,RPMI-8226,> 100 µM (inactive)
same,GI50,RXF 393,> 100 µM (inactive)
same,GI50,SF-268,> 100 µM (inactive)
same,GI50,SF-295,> 100 µM (inactive)
same,GI50,SF-539,> 100 µM (inactive)
same,GI50,SK-MEL-28,> 100 µM (inactive)
same,GI50,SK-MEL-2,> 100 µM (inactive)
same,GI50,SK-MEL-5,> 100 µM (inactive)
same,GI50,SK-OV-3,> 100 µM (inactive)
same,GI50,SN12C,> 100 µM (inactive)
same,GI50,SNB-19,> 100 µM (inactive)
same,GI50,SNB-75,> 100 µM (inactive)
same,GI50,SR,> 100 µM (inactive)
same,GI50,SW-620,> 100 µM (inactive)
same,GI50,T47D,> 100 µM (inactive)
same,GI50,TK-10,> 100 µM (inactive)
same,GI50,U-251,> 100 µM (inactive)
same,GI50,UACC-257,> 100 µM (inactive)
same,GI50,UACC-62,> 100 µM (inactive)
same,GI50,UO-31,> 100 µM (inactive)
CCC(NC(C)c1ccccc1)C(=O)c1ccc(OCc2ccccc2)c(OCc2ccccc2)c1 (stereo unspecified),GI50,786-0,> 100 µM (inactive)
same,GI50,A549,> 100 µM (inactive)
same,GI50,ACHN,> 100 µM (inactive)
same,GI50,BT-549,> 100 µM (inactive)
same,GI50,CAKI-1,> 100 µM (inactive)
same,GI50,COLO 205,> 100 µM (inactive)
same,GI50,DU-145,> 100 µM (inactive)
same,GI50,EKVX,> 100 µM (inactive)
same,GI50,HCC 2998,> 100 µM (inactive)
same,GI50,HCT-116,> 100 µM (inactive)
same,GI50,HCT-15,> 100 µM
same,GI50,HL-60,> 100 µM (inactive)
same,GI50,HOP-62,> 100 µM (inactive)
same,GI50,HOP-92,> 100 µM (inactive)
same,GI50,HT-29,> 100 µM (inactive)
same,GI50,Hs-578T,> 100 µM (inactive)
same,GI50,IGROV-1,> 100 µM (inactive)
same,GI50,K562,4.81 µM (inactive)
same,GI50,KM12,> 100 µM (inactive)
same,GI50,LOX IMVI,> 100 µM (inactive)
same,GI50,M14,> 100 µM (inactive)
same,GI50,MCF7,> 100 µM (inactive)
same,GI50,MDA-MB-231,> 100 µM (inactive)
same,GI50,MDA-MB-435,> 100 µM (inactive)
same,GI50,MDA-N,> 100 µM (inactive)
same,GI50,Malme-3M,> 100 µM (inactive)
same,GI50,NCI-H226,> 100 µM (inactive)
same,GI50,NCI-H23,> 100 µM (inactive)
same,GI50,NCI-H460,> 100 µM (inactive)
same,GI50,NCI-H522,> 100 µM (inactive)
same,GI50,NCI/ADR-RES,> 100 µM (inactive)
same,GI50,OVCAR-3,> 100 µM (inactive)
same,GI50,OVCAR-4,> 100 µM (inactive)
same,GI50,OVCAR-5,> 100 µM (inactive)
same,GI50,OVCAR-8,> 100 µM (inactive)
same,GI50,PC-3,> 100 µM (inactive)
same,GI50,RPMI-8226,> 100 µM (inactive)
same,GI50,RXF 393,> 100 µM (inactive)
same,GI50,SF-268,> 100 µM (inactive)
same,GI50,SF-295,> 100 µM (inactive)
same,GI50,SF-539,> 100 µM (inactive)
same,GI50,SK-MEL-28,> 100 µM (inactive)
same,GI50,SK-MEL-5,> 100 µM (inactive)
same,GI50,SK-OV-3,> 100 µM (inactive)
same,GI50,SN12C,> 100 µM (inactive)
same,GI50,SNB-19,> 100 µM (inactive)
same,GI50,SNB-75,> 100 µM (inactive)
same,GI50,SR,> 100 µM (inactive)
same,GI50,SW-620,> 100 µM (inactive)
same,GI50,T47D,> 100 µM (inactive)
same,GI50,TK-10,> 100 µM (inactive)
same,GI50,U-251,> 100 µM (inactive)
same,GI50,UACC-62,> 100 µM (inactive)
same,GI50,UO-31,> 100 µM (inactive)
Clc1cc(N/N=C(\c2ccccc2)c2ccccn2)ncn1,GI50,A549,0.55 µM (active)
same,GI50,ACHN,0.0266 µM (active)
same,GI50,BT-549,4.21 µM (inactive)
same,GI50,CAKI-1,< 0.01 µM (active)
same,GI50,CCRF-CEM,< 0.01 µM (active)
same,GI50,COLO 205,< 0.01 µM (active)
same,GI50,DU-145,0.5 µM (active)
same,GI50,EKVX,0.0215 µM (active)
same,GI50,HCC 2998,5.94 µM (inactive)
same,GI50,HCT-116,0.0277 µM (active)
same,GI50,HOP-62,0.256 µM (active)
same,GI50,HOP-92,2.44 µM (inactive)
same,GI50,HT-29,< 0.01 µM (active)
same,GI50,Hs-578T,3.38 µM (inactive)
same,GI50,IGROV-1,0.0308 µM (active)
same,GI50,K562,0.0644 µM (active)
same,GI50,KM12,1.22 µM (inactive)
same,GI50,LOX IMVI,0.281 µM (active)
same,GI50,M14,0.0361 µM (active)
same,GI50,MCF7,< 0.01 µM (active)
same,GI50,MDA-MB-231,0.0252 µM (active)
same,GI50,MDA-MB-435,1.02 µM (active)
same,GI50,MDA-N,3.33 µM (inactive)
same,GI50,MOLT-4,0.0308 µM (active)
same,GI50,Malme-3M,< 0.01 µM (active)
same,GI50,NCI-H226,0.246 µM (active)
same,GI50,NCI-H23,0.0904 µM (active)
same,GI50,NCI-H460,0.0262 µM (active)
same,GI50,NCI-H522,< 0.01 µM (active)
same,GI50,NCI/ADR-RES,0.0336 µM (active)
same,GI50,OVCAR-3,0.0223 µM (active)
same,GI50,OVCAR-4,10.9 µM (inactive)
same,GI50,OVCAR-5,0.361 µM (active)
same,GI50,OVCAR-8,< 0.01 µM (active)
same,GI50,PC-3,0.0728 µM (active)
same,GI50,RPMI-8226,0.0438 µM (active)
same,GI50,RXF 393,5.08 µM (inactive)
same,GI50,SF-268,0.489 µM (active)
same,GI50,SF-295,0.502 µM (active)
same,GI50,SF-539,0.197 µM (active)
same,GI50,SK-MEL-28,1.44 µM (inactive)
same,GI50,SK-MEL-2,4.78 µM (inactive)
same,GI50,SK-MEL-5,0.254 µM (active)
same,GI50,SK-OV-3,0.301 µM (active)
same,GI50,SNB-19,1.85 µM (inactive)
same,GI50,SNB-75,20.7 µM (inactive)
same,GI50,SR,0.0942 µM (active)
same,GI50,SW-620,0.0238 µM (active)
same,GI50,T47D,< 0.01 µM (active)
same,GI50,TK-10,0.0363 µM (active)
same,GI50,U-251,0.427 µM (active)
same,GI50,UACC-257,0.0274 µM (active)
same,GI50,UACC-62,0.308 µM (active)
same,GI50,UO-31,0.324 µM (active)
